Counter-ions that a name gives are not always drawn. The source made the active and inactive calls.
Legend:
[1] = tested on: Streptococcus sp. 'group A'; assay: Streptococcus pyogenes SK(-)GAS viability under kanamycin – luminescence, BacTiterGlo, confirmation, counter-screen for streptokinase expression inhibitor project, dose response (AID 1900); assay type: functional, organism-based
Beta-galactosidase = Beta-galactosidase (Escherichia coli, UniProt Q8VNN2); assay: PubChem AID 485352; assay type: functional
Chain of Beta-galactosidase (Q8VNN2 whole entry): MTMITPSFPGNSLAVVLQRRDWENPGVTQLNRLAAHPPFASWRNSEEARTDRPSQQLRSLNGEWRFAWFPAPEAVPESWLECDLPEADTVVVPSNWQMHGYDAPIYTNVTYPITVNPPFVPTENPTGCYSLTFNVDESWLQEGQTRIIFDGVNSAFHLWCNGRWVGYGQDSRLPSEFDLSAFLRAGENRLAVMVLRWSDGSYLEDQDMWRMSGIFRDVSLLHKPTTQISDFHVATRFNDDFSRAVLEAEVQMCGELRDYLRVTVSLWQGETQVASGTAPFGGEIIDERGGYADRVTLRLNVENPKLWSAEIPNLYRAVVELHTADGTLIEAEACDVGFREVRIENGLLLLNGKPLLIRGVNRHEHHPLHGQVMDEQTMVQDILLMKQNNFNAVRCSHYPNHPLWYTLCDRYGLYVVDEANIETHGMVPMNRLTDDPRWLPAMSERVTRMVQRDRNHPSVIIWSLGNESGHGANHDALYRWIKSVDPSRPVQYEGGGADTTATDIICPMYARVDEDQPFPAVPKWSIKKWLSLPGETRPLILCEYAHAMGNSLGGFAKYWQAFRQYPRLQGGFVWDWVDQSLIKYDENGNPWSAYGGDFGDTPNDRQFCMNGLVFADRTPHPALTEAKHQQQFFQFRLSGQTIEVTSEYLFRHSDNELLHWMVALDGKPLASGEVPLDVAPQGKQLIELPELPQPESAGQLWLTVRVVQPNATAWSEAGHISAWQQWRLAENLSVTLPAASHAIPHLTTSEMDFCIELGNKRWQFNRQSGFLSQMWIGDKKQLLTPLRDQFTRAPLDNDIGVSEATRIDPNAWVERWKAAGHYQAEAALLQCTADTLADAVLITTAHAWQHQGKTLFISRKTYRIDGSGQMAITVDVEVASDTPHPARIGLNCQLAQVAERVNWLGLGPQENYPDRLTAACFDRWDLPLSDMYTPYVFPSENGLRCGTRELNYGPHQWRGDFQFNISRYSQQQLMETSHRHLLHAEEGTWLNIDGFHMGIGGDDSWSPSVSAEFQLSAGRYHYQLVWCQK

[2] = Trypanosoma cruzi growth suppression in host cells – NIH3T3 host cells, beta-gal luminescence, confirmation (AID 2044); assay type: functional, cell-based;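 note: intracellular parasites grown in NIH/3T3 mouse fibroblasts as host cells; luminescent beta-galactosidase reporter signal from transgenic T. cruzi replicating inside host cells; inhibitors lower the luminescence signal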
[3] = molecular target: Type-1 angiotensin II receptor (Homo sapiens, UniProt P30556); assay: antagonism of angiotensin II type 1 receptor – cell-based, uHTS hits, selectivity assay for APJ receptor antagonist project, dose response (AID 463214); assay type: functional;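 note: antagonist potency against angiotensin II stimulated AT1 response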
Chain of Type-1 angiotensin II receptor (P30556 whole entry): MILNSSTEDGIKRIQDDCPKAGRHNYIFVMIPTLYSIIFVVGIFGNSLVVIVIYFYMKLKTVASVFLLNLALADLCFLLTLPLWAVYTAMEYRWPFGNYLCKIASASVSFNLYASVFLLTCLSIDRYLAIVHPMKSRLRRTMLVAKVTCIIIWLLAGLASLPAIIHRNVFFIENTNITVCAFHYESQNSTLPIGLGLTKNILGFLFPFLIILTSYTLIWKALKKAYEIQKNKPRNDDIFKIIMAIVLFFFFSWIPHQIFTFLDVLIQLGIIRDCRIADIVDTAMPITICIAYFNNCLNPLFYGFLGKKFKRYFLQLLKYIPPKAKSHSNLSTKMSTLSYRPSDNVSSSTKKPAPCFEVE

[4] = NIH3T3 cell viability loss – ATP luminescence, mouse fibroblasts, counter-screen, dose response (AID 2010); assay type: functional, cell-based;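 note: cells exposed to compound for about 90 hours before reading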
Streptococcus = assay: GAS UMAA2166 growth inhibition – luminescence, BacTiterGlo, counter-screen for streptokinase expression inhibitor project, dose response (AID 1915); assay type: functional, organism-based;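 note: potency for reduction of bacterial viability or growth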
INS1 = assay: INS-1E survival protection against cytokine death – cell-based, luminescence, retest, dose response (AID 449756); assay type: functional; details: Rattus norvegicus;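 note: cell death triggered by IL-1 beta plus TNF-alpha plus IFN-gamma mixture; protective hits raise ATP signal compared with cytokine alone wells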
[5] = molecular target: T1, DNA repair and recombination protein RAD54-like (Homo sapiens, UniProt Q92698); assay: RAD54 Holliday junction migration blockers – biochemical, fluorescence, cherry-picked samples, dose series, confirmation (AID 651657); assay type: functional
T1 sequence (Q92698 whole entry): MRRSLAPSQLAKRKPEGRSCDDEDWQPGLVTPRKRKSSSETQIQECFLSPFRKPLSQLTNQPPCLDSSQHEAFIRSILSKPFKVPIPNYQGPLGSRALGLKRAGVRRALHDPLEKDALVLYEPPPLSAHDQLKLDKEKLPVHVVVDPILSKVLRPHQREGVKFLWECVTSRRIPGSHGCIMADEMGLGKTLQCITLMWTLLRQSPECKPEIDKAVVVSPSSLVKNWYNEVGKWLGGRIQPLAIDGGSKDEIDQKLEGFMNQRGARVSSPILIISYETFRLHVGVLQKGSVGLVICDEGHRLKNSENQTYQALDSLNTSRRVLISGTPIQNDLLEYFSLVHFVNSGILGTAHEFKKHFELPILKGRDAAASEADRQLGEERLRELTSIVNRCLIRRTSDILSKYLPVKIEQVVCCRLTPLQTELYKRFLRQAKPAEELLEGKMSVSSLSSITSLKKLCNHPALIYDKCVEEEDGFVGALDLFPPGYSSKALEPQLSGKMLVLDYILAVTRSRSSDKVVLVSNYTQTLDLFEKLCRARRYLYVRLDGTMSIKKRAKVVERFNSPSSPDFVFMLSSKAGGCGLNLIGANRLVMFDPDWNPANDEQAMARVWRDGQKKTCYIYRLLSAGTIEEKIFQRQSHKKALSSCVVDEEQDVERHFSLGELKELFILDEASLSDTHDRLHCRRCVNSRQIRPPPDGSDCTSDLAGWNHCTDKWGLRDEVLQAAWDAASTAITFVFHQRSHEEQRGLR

[6] = molecular target: Voltage-gated inwardly rectifying potassium channel KCNH2 (Homo sapiens, UniProt Q12809); details: Potency;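 note: confirmatory quantitative high-throughput screen measuring inhibition of hERG channel activity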
cells [7] = assay type: functional, cell-based
cells [8] = assay type: functional, cell-based; remark: listed apart in the source
[9] = molecular target: T2, Microphthalmia-associated transcription factor (Homo sapiens, UniProt O75030); assay: reducers of TRPM1 reporter luminescence, concentration series – cell-based, SK-MEL-5, cherry-picked, set 3, MITF inhibitor project, dose response (AID 493073); assay type: functional;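 note: SK-MEL-5 melanoma cells with luciferase driven by the MITF target TRPM1 promoter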
T2 sequence (O75030 whole entry): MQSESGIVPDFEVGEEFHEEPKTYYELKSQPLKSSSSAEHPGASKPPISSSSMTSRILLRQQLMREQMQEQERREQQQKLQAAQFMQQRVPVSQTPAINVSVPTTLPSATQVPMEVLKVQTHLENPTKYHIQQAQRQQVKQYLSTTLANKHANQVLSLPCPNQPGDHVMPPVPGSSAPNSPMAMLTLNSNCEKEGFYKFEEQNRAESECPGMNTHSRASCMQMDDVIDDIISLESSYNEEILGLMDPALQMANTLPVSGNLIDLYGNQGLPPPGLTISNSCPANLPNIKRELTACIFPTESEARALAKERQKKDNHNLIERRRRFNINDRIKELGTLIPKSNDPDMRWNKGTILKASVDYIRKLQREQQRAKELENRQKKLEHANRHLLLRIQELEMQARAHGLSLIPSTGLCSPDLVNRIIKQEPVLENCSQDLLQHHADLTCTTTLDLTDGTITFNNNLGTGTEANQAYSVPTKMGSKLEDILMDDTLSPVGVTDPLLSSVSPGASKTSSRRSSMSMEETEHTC

[10] = molecular target: Peroxisome proliferator-activated receptor gamma/Nuclear receptor coactivator 2 (Homo sapiens, UniProt P37231); assay type: functional;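 note: agonist potency for raising coactivator recruitment to the receptor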
Chain of Peroxisome proliferator-activated receptor gamma/Nuclear receptor coactivator 2 (P37231 whole entry): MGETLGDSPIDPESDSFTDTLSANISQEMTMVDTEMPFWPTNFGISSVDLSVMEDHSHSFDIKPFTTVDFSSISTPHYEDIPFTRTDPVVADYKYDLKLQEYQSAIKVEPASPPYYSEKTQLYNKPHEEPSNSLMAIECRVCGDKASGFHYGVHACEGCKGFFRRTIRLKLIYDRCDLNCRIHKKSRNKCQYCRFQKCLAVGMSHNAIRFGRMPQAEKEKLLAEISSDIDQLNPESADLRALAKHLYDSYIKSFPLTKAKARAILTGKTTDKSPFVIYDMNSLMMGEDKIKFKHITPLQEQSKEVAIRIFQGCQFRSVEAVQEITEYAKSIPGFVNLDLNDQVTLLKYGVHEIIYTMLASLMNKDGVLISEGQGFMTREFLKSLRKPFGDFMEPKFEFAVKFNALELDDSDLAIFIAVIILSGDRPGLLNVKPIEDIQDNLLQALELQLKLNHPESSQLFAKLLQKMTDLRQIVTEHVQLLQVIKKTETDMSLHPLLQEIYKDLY
Chain of Peroxisome proliferator-activated receptor gamma/Nuclear receptor coactivator 2 (Q15596 whole entry, further chain): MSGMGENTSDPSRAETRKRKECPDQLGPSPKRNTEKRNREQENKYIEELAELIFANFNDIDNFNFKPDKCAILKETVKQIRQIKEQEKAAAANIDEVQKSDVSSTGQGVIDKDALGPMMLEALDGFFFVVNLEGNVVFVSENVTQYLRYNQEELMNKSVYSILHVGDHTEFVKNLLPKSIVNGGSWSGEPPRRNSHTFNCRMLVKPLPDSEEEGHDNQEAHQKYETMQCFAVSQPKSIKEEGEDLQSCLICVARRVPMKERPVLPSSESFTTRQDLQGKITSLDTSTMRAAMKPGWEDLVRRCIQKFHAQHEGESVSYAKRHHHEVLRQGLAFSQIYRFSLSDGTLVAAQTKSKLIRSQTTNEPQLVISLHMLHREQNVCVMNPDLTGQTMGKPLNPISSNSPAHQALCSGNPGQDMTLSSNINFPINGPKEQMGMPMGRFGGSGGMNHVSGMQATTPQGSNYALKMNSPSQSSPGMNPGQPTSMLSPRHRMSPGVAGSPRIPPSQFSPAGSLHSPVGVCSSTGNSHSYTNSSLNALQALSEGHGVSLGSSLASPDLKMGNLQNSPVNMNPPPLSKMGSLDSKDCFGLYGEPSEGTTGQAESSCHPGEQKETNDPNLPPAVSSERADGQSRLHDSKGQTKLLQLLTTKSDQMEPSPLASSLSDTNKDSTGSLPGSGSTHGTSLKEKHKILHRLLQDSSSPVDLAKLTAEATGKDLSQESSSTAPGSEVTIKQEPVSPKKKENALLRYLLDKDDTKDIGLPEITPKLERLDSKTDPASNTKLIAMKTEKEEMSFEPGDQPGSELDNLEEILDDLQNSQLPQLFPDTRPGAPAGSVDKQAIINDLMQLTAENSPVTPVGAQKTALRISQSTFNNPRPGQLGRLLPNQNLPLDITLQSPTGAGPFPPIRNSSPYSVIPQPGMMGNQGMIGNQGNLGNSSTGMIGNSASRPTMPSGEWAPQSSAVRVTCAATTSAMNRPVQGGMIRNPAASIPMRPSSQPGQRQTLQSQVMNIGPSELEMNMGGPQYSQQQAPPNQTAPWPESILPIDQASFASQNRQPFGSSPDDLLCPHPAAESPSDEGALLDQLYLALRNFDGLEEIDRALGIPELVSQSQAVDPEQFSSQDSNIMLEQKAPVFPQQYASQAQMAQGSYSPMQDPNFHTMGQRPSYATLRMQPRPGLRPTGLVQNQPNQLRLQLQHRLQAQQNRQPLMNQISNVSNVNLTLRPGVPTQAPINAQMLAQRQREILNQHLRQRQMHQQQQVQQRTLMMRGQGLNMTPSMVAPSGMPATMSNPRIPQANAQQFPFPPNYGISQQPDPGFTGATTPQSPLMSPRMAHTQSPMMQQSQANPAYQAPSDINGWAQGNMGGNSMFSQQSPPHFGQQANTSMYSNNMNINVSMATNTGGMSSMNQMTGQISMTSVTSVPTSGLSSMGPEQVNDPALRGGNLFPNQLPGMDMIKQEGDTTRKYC

[11] = molecular target: Peroxisome proliferator-activated receptor gamma/Nuclear receptor coactivator 1 (Homo sapiens, UniProt P37231); assay type: functional;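 note: agonist potency as compounds enhance coactivator SRC-1 recruitment to PPARgamma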
[12] = molecular target: Peroxisome proliferator-activated receptor gamma/Nuclear receptor coactivator 3 (Homo sapiens, UniProt P37231); assay type: functional;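 note: agonist potency for raising coactivator recruitment to the receptor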
SUMO-activating enzyme = SUMO-activating enzyme (Homo sapiens, UniProt Q9UBT2); assay: blockers of UBC9-mediated SUMO conjugation – biochemical, AlphaScreen, SUMOylation inhibitor project, confirmation (AID 2018); assay type: functional
Chain of SUMO-activating enzyme (Q9UBE0 whole entry): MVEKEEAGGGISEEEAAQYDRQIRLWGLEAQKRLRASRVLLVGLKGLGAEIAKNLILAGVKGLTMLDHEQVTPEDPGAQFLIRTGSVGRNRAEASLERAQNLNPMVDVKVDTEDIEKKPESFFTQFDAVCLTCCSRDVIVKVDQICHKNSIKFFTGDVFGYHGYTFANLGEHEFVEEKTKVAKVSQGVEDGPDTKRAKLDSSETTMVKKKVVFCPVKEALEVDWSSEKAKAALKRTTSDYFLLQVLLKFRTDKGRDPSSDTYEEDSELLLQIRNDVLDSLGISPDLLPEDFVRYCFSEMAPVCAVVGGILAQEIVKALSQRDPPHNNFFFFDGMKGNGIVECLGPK
Chain of SUMO-activating enzyme (Q9UBT2 whole entry): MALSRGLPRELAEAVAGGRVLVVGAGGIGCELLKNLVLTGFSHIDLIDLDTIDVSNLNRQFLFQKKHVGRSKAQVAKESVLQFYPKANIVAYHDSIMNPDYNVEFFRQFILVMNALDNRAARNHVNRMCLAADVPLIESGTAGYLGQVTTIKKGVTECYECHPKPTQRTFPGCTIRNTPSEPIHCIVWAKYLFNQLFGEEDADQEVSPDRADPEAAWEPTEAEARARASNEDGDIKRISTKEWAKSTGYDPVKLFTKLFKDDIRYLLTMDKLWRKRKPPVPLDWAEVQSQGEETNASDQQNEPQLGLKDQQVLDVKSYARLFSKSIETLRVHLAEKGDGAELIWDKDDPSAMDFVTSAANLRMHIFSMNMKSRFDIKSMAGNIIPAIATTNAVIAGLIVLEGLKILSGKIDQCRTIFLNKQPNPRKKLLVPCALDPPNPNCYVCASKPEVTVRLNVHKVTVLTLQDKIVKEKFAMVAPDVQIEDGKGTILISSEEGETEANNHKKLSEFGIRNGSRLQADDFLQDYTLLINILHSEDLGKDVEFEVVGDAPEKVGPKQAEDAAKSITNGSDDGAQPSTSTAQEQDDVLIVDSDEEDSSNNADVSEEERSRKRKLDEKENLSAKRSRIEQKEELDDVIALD

[13] = viability of PTEN-deleted HCT116 cells – cell-based, HCT116 PTEN knockout, dose response (AID 1047); assay type: functional;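 note: HCT116 colon tumor cells with PTEN knocked out; cells exposed to compound for 60 hours before readout; potency for loss of cell viability measured by luminescence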
[14] = viability of HCT116 lacking mutant beta-catenin – cell-based, human colon tumor, dose response (AID 1045); assay type: functional;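 note: HCT116 colon tumor cells with beta catenin knocked out; cells exposed to compound for 60 hours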
[15] = molecular target: Beta-2 adrenergic receptor (Homo sapiens, UniProt P07550); assay: ADRB2 activation measured by internalization – cell-based, FAP fluorogen, flow cytometry, cherry pick 1, dose response (AID 588763); assay type: functional
Chain of Beta-2 adrenergic receptor (P07550 whole entry): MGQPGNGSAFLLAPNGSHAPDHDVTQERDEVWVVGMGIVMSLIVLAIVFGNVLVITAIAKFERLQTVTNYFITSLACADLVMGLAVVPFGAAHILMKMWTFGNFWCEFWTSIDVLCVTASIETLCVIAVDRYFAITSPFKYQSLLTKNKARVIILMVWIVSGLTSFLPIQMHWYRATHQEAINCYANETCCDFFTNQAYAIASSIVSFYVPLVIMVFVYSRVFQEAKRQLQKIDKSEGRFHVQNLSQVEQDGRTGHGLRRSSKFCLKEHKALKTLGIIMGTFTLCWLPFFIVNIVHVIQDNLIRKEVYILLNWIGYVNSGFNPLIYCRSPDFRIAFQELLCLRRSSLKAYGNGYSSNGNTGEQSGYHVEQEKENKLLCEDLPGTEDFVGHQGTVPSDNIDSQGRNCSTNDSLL

HEK293 = assay: cells; assay type: functional, cell-based; details: Homo sapiens
[16] = molecular target: T3, Nuclear receptor subfamily 0 group B member 1 (Homo sapiens, UniProt P51843); assay: Luminescence-based cell-based high throughput dose response assay for inhibitors of the orphan nuclear receptor subfamily 0, group B, member 1 (DAX1; NR0B1). [Related pubchem assays (depositor defined):AID504766, AID504790]; assay type: functional
T3 sequence (P51843 whole entry): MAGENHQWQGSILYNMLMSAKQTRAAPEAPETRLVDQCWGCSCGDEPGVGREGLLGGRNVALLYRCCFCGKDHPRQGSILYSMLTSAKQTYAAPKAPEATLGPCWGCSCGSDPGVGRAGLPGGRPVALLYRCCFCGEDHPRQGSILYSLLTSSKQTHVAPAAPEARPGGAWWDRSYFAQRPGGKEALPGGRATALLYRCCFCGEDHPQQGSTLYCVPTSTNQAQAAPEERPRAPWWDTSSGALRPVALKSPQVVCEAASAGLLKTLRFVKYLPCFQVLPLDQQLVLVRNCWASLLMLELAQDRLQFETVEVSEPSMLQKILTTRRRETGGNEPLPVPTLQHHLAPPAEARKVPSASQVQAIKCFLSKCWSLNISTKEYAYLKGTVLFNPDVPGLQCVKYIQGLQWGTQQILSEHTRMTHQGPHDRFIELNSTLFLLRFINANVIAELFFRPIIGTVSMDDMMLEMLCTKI

Compound: CCCN(CCC)c1nc(-c2ccccn2)nc2ccccc12
- EC50 [1]: 1.02 µM (active)
- EC50 (Beta-galactosidase): > 40 µM (inactive)
- EC50 [2]: 0.374 µM (active)
- IC50 [3]: 23.9 µM (not active)
- EC50 [4]: 1.76 µM (active)
- EC50 (Streptococcus): 1.85 µM (active)
- AC50 (INS1): 1.77 µM (active)
- AC50 [5]: 13.3 µM (active)

Compound: CNCCCC1c2ccccc2C=Cc2ccccc21 [PROTRIPTYLINE HYDROCHLORIDE]
- AC50 [6]: 31.6 µM (inconclusive)

Compound: COc1cc(C(=O)N/N=C(\c2ccccc2)c2ccccn2)cc(OC)c1OC
- EC50 (cells [7]): 10.3 µM (active)
- EC50 (Beta-galactosidase): > 40 µM (inactive)
- EC50 [2]: 0.473 µM (active)
- IC50 [3]: > 40 µM (not active)
- EC50 (cells [8]): > 350 µM (not active)
- EC50 [4]: 0.75 µM (active)
- AC50 [9]: 13.8 µM (active)
- AC50 (INS1): 0.499 µM (active)

Compound: O=C(Nc1ccc2oc(-c3ccc4ccccc4c3)nc2c1)c1ccc2c(c1)OCCO2
- EC50 [10]: 22.1 µM (not active)
- EC50 [11]: 27.1 µM (not active)
- EC50 [12]: 37.1 µM (not active)
- IC50 (SUMO-activating enzyme): 38.9 µM (active)
- EC50 [13]: 12.4 µM (active)
- EC50 [14]: 18.4 µM (active)
- EC50 [15]: 5.58 µM (active)

Compound: O=C(Nc1nc(-c2ccccc2)ns1)c1ccncc1
- IC50 (HEK293): > 67.5 µM (inactive)
- IC50 [16]: > 67.5 µM (inactive)
